The values that follow come from paper PMC8834506, “Optimization of Thymidine Kinase-Based Safety Switch for Neural Cell Therapy” (Cells, 2022).

In data set [1] the test system is hESC (HS420) expressing Ki67-SR39h D116E. The experiment in a line: ATP-based cell survival assay, GCV-induced cell death. As to conditions: Homo sapiens. On the procedure: Our first generation of suicide gene was engineered with the wild type thymidine kinase (wt-TK). To improve the suicide gene efficacy, we investigated different TK variants; wt-TK, 30-GMK, SR39, SR39h, and SR39h D116E variants. These sequences were chosen based on the analysis of the literature investigating HSV1-TK variants, as well as a gain of function mutation in the CMV UL-97 kinase. The efficacy of each variants was determined as percentage of cell survival following prodrug treatment compared to non-treated hESC. For this purpose, we used the ATP-based assay, which measures cellular ATP content and thereby provides a reliable estimate of the number of healthy cells. The 50% effective concentration (EC50) was defined as the drug concentration required to reduce the percentage of cell survival by 50%. […] In order to optimize our system, we first replaced the wt-TK by the 30-GMK variant, which is a fusion between the 30 TK variant and guanylate kinase (GMK). Note that GMK is mediating the second phosphorylation step of antiviral nucleoside analogs. […] Microbial codon usage might not yield optimal results in human cells. We therefore adapted the SR39 sequence to a typical human codon usage. […]
Figure 1 EC50 of ganciclovir (GCV) in cell expressing different thymidine kinase (TK) variants. […] Number of surviving cells was monitored using bioluminescent ATP-based assay. […]

For another data set, the system named is non-transduced hESC. The class given is cell-based. As to conditions: 96 h nucleoside exposure; up to 100 µM. On the procedure: Cells were exposed to 100 µM of the respective nucleoside for 48 h. DNA damage was monitored using γ-H2A.X marker in yellow and nuclei were counterstained with Hoechst. The white box in the first column indicates the area of the zoom for the hESC colonies.
Plates were washed twice with DMEM-F12 (Gibco, ThermoFisher; Geneva, Switzerland), then coated with Matrigel (Corning, Lonay, Switzerland) 1/100 in DMEM-F12 and incubate 2 h at 37°. Cells were detached using Accutase and seeded at 2000 cells/well in serum-free culture medium containing 10 µM of ROCK inhibitor. At 24 h, the cell culture was continued without ROCK inhibitor. […] Drugs were prepared by serial dilution (two-fold) in 100% DMSO. At 48 h after seeding, cells were exposed to antiviral drugs for 96 h. For EC50 assays, the medium was changed daily for 4 days, then cell viability was assessed using an ATP-based assay. EC50 values for each construct were calculated using a four parameters equation (GraphPad, Prism8, San Diego, CA, USA). The same procedure was used for the cell death kinetic determinations except the treatment duration. Luminescence was measured using Spectra L384/L96 (0.2 sec exposure, Molecular devices, Biberach an der Riß, Germany).

Data set [2] is classed as in vivo, NOD/SCID mice. The note with it: 40 mg/kg/day i.p.; weighed daily during treatment. The method, then:
Given the encouraging in vitro results, we next investigated whether this newly developed safety switch system (SR39h and different nucleoside analogs) could prevent tumor formation in vivo. For this purpose, 20,000 undifferentiated Ki67-SR39h-expressing hESC were transplanted into the striatum of NOD/SCID mice. […] A group of control mice received only a NaCl solution. […] Human cytoplasmic marker (HCM) staining confirmed the human (i.e., hESC-derived) origin of these tumors. Tumors cells were predominantly Ki67 positive with a rosette organization as frequently found in tumors of the central nervous system.
Supplementary Figure S3: Mice weight
Mice were weighed daily during guanosine analogs treatment to identify differences in weight gain/loss between treated groups. No differences were observed between treatment groups.
Supplementary Figure S4: in vivo validation of suicide gene. Coronal section of NOD/SCID mice 47 days after injection of hESC expressing the SR39h thymidine kinase variant. Mice were treated for 2x5 days with the respective nucleoside analogs (see Methods). Upper lane: ACV; middle lane: PCV; lower lane: GCV. Sections were colored with cresyl violet and dark purple staining reflects a high density of nuclei. Scale bar 1000 µm. […]

The subject of data set [3] is sister chromatid exchange. The arrangement: method as in PMID 10719044. The note with it: at concentrations far below those impairing the proliferative activity; cited from earlier work.

Like-named read-outs stand apart in the source and are kept apart here.

A word on the EC50: it is the concentration giving half of the maximal effect. In the case of `Nc1nc(O)c2ncn(COC(CO)CO)c2n1` [GCV, ganciclovir], the EC50 in data set [1] (96 h, read-out: GCV EC50 in M) turned out to be 0.56 nM; in data set [1] (96 h GCV exposure, SR39h D116E variant, read-out: EC50 of GCV (cell survival)) it was 0.6 nM. Besides, in the data set on non-transduced hESC, the “Toxicity in non-transduced hESC” value is given as “low micromolar range”. The “Differences in weight among groups” value in data set [2] is listed as “no significant differences in weight”. Besides, the “Induction of sister chromatid exchange” value in data set [3] is “potent inducer of sister chromatid exchange”.
